Measured values from US20050090471A1, “Inhibitors of cyclin-dependent kinases, compositions and uses related thereto” (GPC Biotech, Inc, priority 2001, published 2005).
Read-outs that look alike come from different tables or passages of the source.

Key:
HCT-116 cells [1] = experiment: BrdU incorporation into DNA (flow cytometry); format: cell-based, human; design: unit not given here; conditions: inhibition of BrdU incorporation, unit not given; for BrdU 72: analysis at 72 hours; for BrdU 24: analysis at 24 hours; for BrdU 48: analysis at 48 hours
Experimental: This method measured the percentage of cells that incorporated the nucleotide analog, BrdU, into newly synthesized DNA as cells progressed through the S phase of the cell cycle. The inhibition of BrdU incorporation was used as a measure of a Cdlc inhibitor's effect on S phase progression and DNA replication.
3 sets of HCT-116 cells (100,000 cells/set) were plated in T25 flasks and incubated with a test compound as above. Analysis was done at 24, 48, and 72 hours. BrdU was added to each T-25 flask from a stock of 10 mg/ml to a final concentration of 10 μM and the cells were incubated for an additional 16-18 hours at 37° C. The cells were then prepared for flow cytometric analysis according to manufacturer's protocol (BrdU Flow kit, BD-Pharmingen catalogue # 2354KK) as follows:
Cells were harvested (adherent and floating) from the T25 flasks directly into Falcon 12×75 flow cytometric tubes as above followed by fixation and permeabilization with the addition of 100 μl Cytofix/Cytoperm buffer (30 minutes, room temperature). The cells were then washed with 1 ml of Perm Wash buffer and the cell pellets were resuspended in 100 μl Cytoperm Plus buffer and incubated on ice for 10 minutes. The cells were then washed again with 1 ml of Perm Wash buffer and the fixation was repeated in 100 μl of Cytofix/Cyto Perm buffer for 10 minutes at room temperature. The cells were then washed with 1 ml of Perm Wash buffer. The cells were next treated for one hour at 37° C. with 100 μl DNase to expose incorporated BrdU followed by another wash step with 1 ml of Perm Wash buffer. […] Cells were protected from light and incubated at room temperature for 20-30 minutes. Following the incubation, the cells were washed with 1 ml of Perrn Wash buffer, resuspended in 300 μl of 2% FBS in PBS, and analyzed on the flow cytometer.

HCT-116 = experiment: Calcein AM viability assay, HCT-116; format: cell-based, human; conditions: 72-hours incubation
Experimental: (§1) The potency of Cdk inhibitors, as measured by loss of cellular viability, was determined with the Calcein AM assay (Molecular Probes). Calcein AM is a substrate of intracellular esterases, which is cleaved only in viable cells to generate a fluorescent product that can be quantified with a fluorescent plate reader. The fluorescent signal is proportional to the number of viable cells, and thus loss of signal in response to the exposure of cells to Cdk inhibitors correlates with a loss of viability. This assay distinguishes cell cycle arrest from loss of viability and is thus well suited for the evaluation of Cdk inhibitors.
(§2) Cellular IC50's were determined in the human colorectal carcinoma cell line, HCT-116, and the normal human fibroblast, IMR90. Protein adjusted IC50's were also determined in HCT-116. Results are presented in Table 3 below (HCT-116 (viability/protein adjusted) and IMR-90).
(§3) HCT-116 or IMR90 cells were recovered from sub-confluent plates by trypsinization and 1,000 or 4,000 cells, respectively, were plated in 24-well dishes and incubated overnight at 37° C., 5% CO2. HCT-116 cells were cultured in RPMI-1640, 10% FCS, and IMR90 cells were cultured in Minimum Essential Medium-alpha, 10% FCS. After overnight incubation to allow.adlierence, the media was aspirated from each well and replaced with media containing a test compound at a concentration from 0 to 250 nM, spanning a total of 7 doses. The plates were returned to the incubator and cultured for an additional 3 days. […] After 72-hours incubation with the test compound, the cells were washed twice with 1×PBS, talking special care to remove all residual buffer.
(§4) A 5 μM Calcein AM. solution was prepared by dissolving a 50 μg aliquot of Calcein (Molecular Probes catalog # C3100) in 50 μl DMSO. After the Calcein had completely dissolved (10 minutes at room temperature), it was diluted into 10 ml PBS. Calcein/PBS (0.5 ml) was added to each well. The plates were incubated for 75 minutes at 37° C. (protected from light) and the fluorescent signal was read on a fluorescent plate reader (excitation 485/20 and emission 530/25).

HCT-116 cells [2] = experiment: Clonogenic survival assay with HCT-116 cells; format: cell-based; conditions: Homo sapiens
Experimental: This assay was used to determine the concentration of a compound that results irreversible loss of viability after a specified period of exposure.
Media (RPMI-1640, 10% FCS, pen/strep) was pre-warnied to 37° C. in a water bath. Cells were incubated and grown at 37° C., 5% CO2. Cells were recovered by trypsinization from sub-confluent plates and counted using a hemocytometer. 1×10^4 cells were plated in 25 mls of media in a 15 cm tissue culture dish. 14 plates were set up for each test compound, and were incubated overnight at 37° C. The compound was diluted into media at 7 concentrations and the media on the cells was replaced with that containing the test compound. Two plates were set up for each concentration of the compound to be tested, as well as two control plates without compound. […] Colonies were stained with crystal violet solution (0.4% crystal violet, 20 % ethanol) for 5 minutes, washed twice with distilled water, and counted.

IMR90 = experiment: Calcein AM viability assay, IMR90; format: cell-based; conditions: IMR-90, normal human fibroblast, 72-hours incubation
Experimental: as §1, §2, §3, §4

[3] = system: NCI panel of 60 cell lines; experiment: NCI panel of human tumor cell lines (SRB assay), MG-MID; format: cell-based; conditions: 48 hours incubation with compound
Excerpt: (§5) The evaluation of compounds at the National Cancer Institute in their panel of 60 cell lines provides a wealth of information regarding efficacy in a wide range of tumor types and genetic backgrounds. Included within this panel are cell lines derived from leukemia, melanoma and cancers of the lung, colon, brain, ovary, breast, prostate and kidney. Use of this panel provides a measure of the efficacy of compounds in cells with alterations in many genes that are associated with neoplastic transformation including p53 and Her2/Neu as well as those involved in metabolism and those which confer multi-drug resistance. The data generated in these cell lines with the protocol described below can be used to evaluate the activity of compounds.
(§6) Cells were grown in RPMI-1640 10% FCS and plated in 96 well micro-titer plates at densities ranging from 5,000 to 40,000 cells/well. The plates were incubated for 24 hours at 37° C., 5% CO2 for 24 hours. Media containing twice the desired final concentration of the compound (5 doses spanning 4 logs) was prepared and 100 μl was added to each well containing 100 μl media plus cells to yield the desired final concentration. The plates were then incubated for an additional 48 hours.
(§7) The effect of the compound on cellular viability was determined with the Sulforhodamine B (SRB) assay which measures total protein. Cells were fixed with cold TCA to a fmal concentration of 10% and incubated at 4° C. for 60 minutes. The supernatant was discarded and the plates were washed five times with water and air-dried. SRB solution at […] in 1% acetic acid was added to each well and the plates were incubated for 10 minutes at room temperature. The plates were washed five times with 1% acetic acid and air-dried. The bound stain was solubilized with 10 mM trizma base and the absorbance was read on a plate reader at […].

ADR-res = experiment: NCI panel (SRB assay), ADR-res cell line; format: cell-based, human; conditions: 48 hours incubation with compound, unit not given
Excerpt: as §5, §6, §7

arrested IMR90 cells = experiment: Arrested cell assay (serum starvation), IMR90; format: cell-based, human; design: unit not given here; conditions: serum-starved arrested cells; unit not given
Experimental: (§8) Cyclin-dependent kinase (Cdk) activity is required to promote the progression of cells through distinct phases of the cell division cycle. The proliferation of normal, non-transformed, cells in culture requires the presence of growth factors, the removal of which, through serum deprivation, leads to a loss of Cdlc activity and consequent exit from the cell cycle as cells enter the quiescent phase, Go.
IMR90 cells were plated in triplicate for each compound concentration to be tested in MEM-α media containing 10% fetal calf serum at a density of either 2,000 or 20,000 cells per well in 24-well dishes and incubated overnight at 37° C., 5% CO2. The media was removed from the 20,000 cell-per-well dish, cells were washed once with serum-free media, and serum-fiee media was placed on cells. The plates containing cells both in the presence and absence of serum were incubated for 3 additional days.
(§9) To ensure that the cells had indeed exited the cell cyde upon serum withdrawal, the percentage of BrdU positive cells, indicative of those progressing through S phase, was determined in each experiment. For the purpose of this experiment, cellular viability was evaluated simultaneously with the use of SNARF-1, a fluorescent substrate of intracellular esterases which are only active in viable cells. Together, the evaluation of BrdU incorporation and SNARF-1 cleavage by flow cytometry provided an assessment of the viability of arrested cells on a single cell basis. For this analysis, the cells were stained with SNARF-1 as follows and then prepared for determination of BrdU incorporation as described above.
(§10) HCT-116 and IMR90 cells were plated at the density described below in T25 flasks in serum-containing media (RPMI-1640 or MEM-a with 10% FCS, respectively). After 24 hours of growth, the media was removed and, after washing the cells, replaced with serum-free media. • HCT-116+FCS 5,000 cells • HCT-116−FCS 100,000 cells • IMR90+FCS 100,000 cells • IMR90−FCS 200,000 cells
(§11) The IMR90 cells were grown for an additional 3 days and the HCT-116 cells were grown for an additional 6 days before pulsing with BrdU. A 50 μg aliquot of SNARF-1 (Molecular Probes catalog #C1272) was dissolved in 50 μl DMSO at room temperature for 10 minutes and then diluted into 10 ml PBS. The SNARF-1 was further diluted 1:64,000 before 200 μl was added to each tube of cells which had been cultured in the presence or absence of serum and pulsed with BrdU for 20 hours. The cells were incubated at 37° C. for 30 minutes and then washed with 3 ml of PBS.
(§12) These cells were then fixed and prepared for the measurement of BrdU incorporation as described above. The percentage of viable (FL-2) and BrdU positive (FL-1) cells was determined on a FACScan flow cytometer.

arrested HCT-116 cells = experiment: Arrested cell assay (serum starvation), HCT-116; format: cell-based, human; design: unit not given here; conditions: serum-starved arrested cells; unit not given
Experimental: as §8
HCT-116 cells were plated in triplicate for each compound concentration to be tested in RPMI 1640 media containing 10% fetal calf serum at a density of either 200 or 2,000 cells per well in 24 well dishes, and incubated overnight at 37° C., 5% CO2. The media from the plate containing 2,000 cells per well was removed, cells were washed once with serum free media and 1 ml of serum free media was placed on cells. Tle plates containing cells both in the presence and absence of serum were incubated for 6 additional days.
as §9, §10, §11, §12

[4] = Homo sapiens, RPMI-1640 10% FCS, read-out: HCT-116 IC50 viability
[5] = 24 h exposure, read-out: HCT-116 IC50 clonogenic 24 h
[6] = plus 1 mg/ml alpha acidic glycoprotein and 45 mg/ml human serum albumin, read-out: HCT-116 IC50 protein adjusted

SMILES | BrdU 72 (HCT-116 cells [1]) | IC50 (HCT-116; [4]) [nM] | IC50 (HCT-116 cells [2]; 48 h exposure, read-out: HCT-116 IC50 clonogenic 48 h) [nM] | IC50 (HCT-116 cells [2]; 72 h exposure, read-out: HCT-116 IC50 clonogenic 72 h) [nM] | IC50 (IMR90) [nM] | NCI panel MG-MID [3] [µM] | NCI panel ADR-res (ADR-res) | IC50 (HCT-116 cells [2]; [5]) [nM] | BrdU 24 (HCT-116 cells [1]) | BrdU 48 (HCT-116 cells [1]) | Arrested cell IMR90 (arrested IMR90 cells) | Arrested cell HCT (arrested HCT-116 cells) | IC50 (HCT-116; [6]) [nM]
CC(C)c1nn(-c2c(Cl)cc(Cl)cc2Cl)c2nc(Cc3ccc(OCCN4CCOCC4)cc3)[nH]c(=O)c12.Cl [A] | <0.1 | < 100 | < 100 | < 100 | < 100 | <0.1 | <1 | – | – | – | – | – | –
Cc1cc(-c2[nH]nc3c2C(=O)c2c(NC(=O)NN4CCN(C)CC4)cccc2-3)ccc1OCCN1CCCC1 [Compound P] | – | < 10 | – | – | < 100 | – | – | < 100 | – | – | – | – | –
CC(C)c1nn(-c2c(Cl)cc(Cl)cc2Cl)c2nc(Cc3ccc(NS(=O)(=O)CCCN4CCOCC4)cc3)[nH]c(=O)c12.Cl [D] | <0.1 | – | – | – | < 10 | – | – | – | <0.1 | <0.1 | >1.0 | <0.01 | –
Cc1cc(OCCN2CCCC2)ccc1-c1[nH]nc2c1C(=O)c1c(NC(=O)NN3CCN(C)CC3)cccc1-2.Cl.Cl.Cl [L] | <0.1 | – | – | – | > 100 | >10 | >10 | – | <0.1 | <0.1 | – | – | < 1000
CN1CCN(NC(=O)Nc2cccc3c2C(=O)c2c-3n[nH]c2-c2ccc(OCCN3CCC[C@H]3CO)cc2)CC1.Cl.Cl.Cl [M] | <0.1 | – | – | – | < 100 | – | – | – | <0.1 | <0.1 | >1.0 | <0.1 | < 1000
CN1CCN(NC(=O)Nc2cccc3c2C(=O)c2c-3n[nH]c2-c2ccc(OCCN(CCO)CCO)cc2)CC1 [N] | – | < 1000 | – | – | > 100 | – | – | – | – | – | – | – | < 1000
CN1CCN(NC(=O)Nc2cccc3c2C(=O)c2c-3n[nH]c2-c2ccc(OCCN3CC[C@H](O)C3)cc2)CC1.Cl.Cl.Cl [O] | <1 | – | – | – | < 100 | – | – | < 10 | <0.1 | <1 | >0.1 | <0.1 | –
